pIC50: −log10 of the molar value. Read-outs that look alike come from different tables or passages of the source.

Data set [1] is described as follows: Assay on drug metabolism in rat. The format is in vivo, SD rats. Particulars: SD, plasma, iv, 30 mg/Kg via jugular vein. The text has this:
50 SD rats (purchased from Shanghai SLAC Laboratory Animal Co., Ltd) were divided into 5 groups randomly, 10 rats per group. After anesthesia with ether, rat was fixed on the operating table on its back, and was shaved at the operative site of neck. After disinfection with 75% alcohol, the neck was cut about 1.5 cm longitudinally, muscle tissues and nervi vascularis surrounding trachea were separated by blunt dissection, and carotid artery was separated by blunt dissection. Ligation was performed at distal end, an artery clamp was used at proximal part, and the distance between them was about 1 cm. A small cut was made with a pair of ophthalmic scissors at proximal part close to the ligated site, and arterial duct was introduced from the small cut to the proximal part, the artery clamp was loosened, the arterial ostium was clamped with smooth forceps, whilst the arterial duct was delivered to heart ventricle. Upon the introduction of the arterial duct into heart ventricle, the blood vessel was ligated. By using the same intubation method for artery, intubation was applied to jugular veins. After intubation, a tubule filled with heparin sodium was drawn out from artery and vein, which passed through the skin under the ear of the rat and drawn out from the dorsal part skin of the neck of the rat, and the tubule was fixed well. The muscles and skin were sutured at the surgical site of the rat, and normal saline containing heparin sodium was injected from time to time via the tubule connecting the artery and the vein to prevent tubule obstruction due to blood coagulation. The rat was placed in a warm and clean cage provided with water and food, waiting for the rat to wake up naturally.
After the rat regained consciousness and acted normally, assay on metabolic stability of compounds was performed in the rat. All the agents to be injected (including compounds to be tested and control drug) were dissolved in a mixed solvent of PEG400:Tween 80:normal saline (at a volume ratio of 5:5:90), at a concentration of 5 mg/mL. The agent was injected slowly at a dose of 30 mg/Kg via the tubule drawn out from the jugular vein. After administration, the time was recorded, and blood was collected from the tubule drawn out from carotid artery at 2, 5, 10, 20, 30, 60, 240, 360, and 720 min, in an amount of 200 μL for each time. The whole blood was placed in commercially available heparin sodium blood-collecting tube (Jiangxi Jingzhi Medical Equipment Co., Ltd.), centrifuged at 1800 g for 15 min. To the supernatant plasma, 150 μL pre-cooled methanol stopping buffer (containing internal standard E8, 1 nmol/sample) was added, vertically mixed well, and then centrifuged at 4° C., 12000 g for 10 min. The supernatant was transferred to a sample vial, the target compound was detected by LC-MS/MS, and the content of the compound was calculated by virtue of standard curve.

Data set [2] can be described thus: Stability assays at acidic and basic conditions. The format is physicochemical. The procedure: The sample containing the compound to be tested was then incubated in a constant temperature shaker at 37° C. At different time points (0 min, 10 min, 30 min, 1 h, 2 h, 4 h, 6 h, 12 h, 24 h), 50 μL sample was taken and added to 150 μL precooled methanol (containing the internal standard E8, 1 nmol/sample), wherein three parallel samples were prepared for each time point. The samples were then vertically mixed well, and transferred to a sample vial. LC-MS/MS was used to measure the peak area at different time points, Analyst® version 1.4.1. software was used to analyze chromatographic peak, and the content of the target compound was calculated based on the standard curve.

Data set [3] in a line: Stability assay in rat plasma. The format is in vitro ADME. Conditions: 37° C. The procedure: To each of several tubes sub-packaged with rat plasma, PBS solution was added in a volume equal to a quarter of plasma volume, and the resultant mixture was mixed well. […] At different time points (0, 10, 30, 60, 120, 240, 360, 720, 1440 min), 50 μL plasma sample was taken and added to 150 μL precooled methanol (containing the internal standard compound E8, with a structure of
[drawing 117] and a name of 1-(2-Biphenyl-4-yl)ethyl-carbonyl pyrrolidine, 1 nmol/sample), wherein three parallel samples were prepared for each time point. The samples were then vertically mixed well, and centrifuged at 4° C., 12000 g for 10 min. The supernatant was transferred to a sample vial. LC-MS/MS was used to measure the peak area at different time points, Analyst® version 1.4.1. software was used to analyze chromatographic peak, and the content of the target compound was calculated by virtue of the standard curve.

Data set [4] concerns the target N-acylethanolamide hydrolyzing acid amidase (NAAA) (Rattus norvegicus, UniProt Q5KTC7). Briefly: Endocannabinoid hydrolase activity: NAAA inhibition (17:1 FAE hydrolysis, LC-MS). The format is biochemical.
Protocol: The preparation method was as followed: a plasmid (pCDNA3.1/NAAA or pCDNA3.1/FAAH) carrying a whole NAAA/FAAH gene was constructed, wherein the plasmid carried Cytomegalovirus (CMV) promoter and Neomycin selectable gene; the plasmid was transformed into HEK-293 cell via lipid medium, stable cell lines expressing NAAA/FAAH at a high level were obtained by G418 screening and Western-blot method. HEK-293 recombinant cells were cultured and collected, washed with PBS for 2-3 times, and ultrasonically treated in 20 mM Tris-HCl containing 0.32 M sucrose, then repeatedly frozen and thawed twice, and then centrifuged at 4° C., 800 g for 15 min. The supernatant (i.e., the desired protein) was collected, the protein concentration was determined by BCA method, and the protein was diluted to a concentration of 1 mg/mL, and sub-packaged and stored in a refrigerator at −80° C. for further use.
The reaction was carried out at 37° C. for 10 min. 170 μL buffer (the buffer consisted of 50 mM disodium Hydrogen Phosphate, 0.1% Triton X-100, 3 mM DTT, 150 μL) containing enzymatic hydrolysis substrate (the substrate was a heptadecenoyl ethanolamine containing a double bond and 17 carbon atoms, abbreviated as 17:1 FAE) was further added, wherein the concentration of 17:1 FAE was 5 μM. The reaction was carried out at 37° C. for 30 min, and 200 μL methanol solution containing internal standard (the internal standard was margaric acid, at a concentration of 1 nmol) was then added to stop the reaction. LC-MS was used to determine the yield of the hydrolysate 17:1 FA (i.e., a heptadecenoic acid containing a double bond) of 17:1 FAE, then a graph was plotted with Graphpad Prism 5. Thereby, the IC50 of the test compound on endocannabinoid hydrolase was determined.
The target in a further data set is hERG potassium channel (Homo sapiens (Human), UniProt Q12809). Briefly: hERG potassium channel automated patch clamp in CHO-hERG cells. The procedure: CHO-hERG cells (purchased from ATCC) were incubated in a culture flask. When the cell density reached 60˜80%, the culture medium (Glutamax DMEM/F12 medium (Gibco, Shanghai) containing 10% fetal bovine serum) was removed. The cells were washed with 7 mL PBS once, and then digested by adding 3 mL Detachin cell dissociation buffer. After complete digestion, the resultant mixture was neutralized by adding 7 mL culture medium, and centrifuged. The supernatant was removed with a pipette, 5 mL culture medium was added to re-suspend the cells to ensure a cell density of 2˜5×10^6/mL.
Chain of hERG potassium channel (Q12809 whole entry): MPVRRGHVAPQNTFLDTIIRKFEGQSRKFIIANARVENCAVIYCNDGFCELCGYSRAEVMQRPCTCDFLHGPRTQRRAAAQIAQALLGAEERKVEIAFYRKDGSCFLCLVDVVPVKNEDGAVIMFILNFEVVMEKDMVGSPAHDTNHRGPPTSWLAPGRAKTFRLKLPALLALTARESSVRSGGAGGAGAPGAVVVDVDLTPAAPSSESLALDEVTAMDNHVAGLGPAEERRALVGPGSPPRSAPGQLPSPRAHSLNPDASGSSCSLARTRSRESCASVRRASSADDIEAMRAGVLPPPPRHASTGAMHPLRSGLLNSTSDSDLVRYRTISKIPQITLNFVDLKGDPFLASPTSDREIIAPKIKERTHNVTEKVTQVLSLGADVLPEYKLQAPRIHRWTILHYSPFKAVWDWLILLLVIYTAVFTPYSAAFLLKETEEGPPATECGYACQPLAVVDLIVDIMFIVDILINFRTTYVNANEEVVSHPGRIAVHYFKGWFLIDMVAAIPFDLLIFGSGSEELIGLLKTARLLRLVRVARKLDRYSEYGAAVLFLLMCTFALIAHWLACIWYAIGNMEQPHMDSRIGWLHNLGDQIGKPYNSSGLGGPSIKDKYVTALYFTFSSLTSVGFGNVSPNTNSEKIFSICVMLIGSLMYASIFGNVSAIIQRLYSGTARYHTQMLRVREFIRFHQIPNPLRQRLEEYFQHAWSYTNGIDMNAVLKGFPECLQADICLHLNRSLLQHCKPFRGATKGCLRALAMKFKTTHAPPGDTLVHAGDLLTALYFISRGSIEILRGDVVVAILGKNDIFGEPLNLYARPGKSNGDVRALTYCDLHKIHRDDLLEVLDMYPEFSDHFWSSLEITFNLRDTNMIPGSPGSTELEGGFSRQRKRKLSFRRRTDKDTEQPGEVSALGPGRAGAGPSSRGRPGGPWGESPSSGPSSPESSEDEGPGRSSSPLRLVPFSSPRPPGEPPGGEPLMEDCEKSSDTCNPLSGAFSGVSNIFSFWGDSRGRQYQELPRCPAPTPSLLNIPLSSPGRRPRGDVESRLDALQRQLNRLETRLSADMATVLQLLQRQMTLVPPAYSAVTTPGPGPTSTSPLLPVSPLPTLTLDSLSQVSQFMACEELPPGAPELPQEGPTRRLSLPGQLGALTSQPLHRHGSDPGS
Intracellular fluid and extracellular fluid were prepared as described in the following table.
A certain amount of compound was dissolved in […] at the following concentrations, to prepare the stock solution of compound. 2 μL stock solution of compound was added to 998 μL extracellular fluid, and was subjected to 5-fold serial dilution in extracellular fluid containing 0.2% DMSO to get the final concentrates to be tested.
Single cell giga-seal and formation of whole-cell mode were automatically performed by Sophion Qpatch HT fully automated cell patch clamp systems. After obtaining the whole-cell recording mode, the cell was clamped at −80 mV. The cell first underwent pre-voltage of −50 mV for 50 msec, then underwent depolarization stimulation at 20 mV for 5 sec, and then underwent repolarization at −50 mV for 5 sec, and then the voltage return to −80 mv. The cell underwent the stimulation at the voltage every 15 sec, and the data were recorded for 2 min, then extracellular fluid was administered, and then the data were recorded for 2 min. Then, the administration process begun. The concentration of a test compound started from the lowest concentration, each test concentration was administered for 2 min. […] At least three cells were tested for each concentration (n≥3). The experimental data was analyzed by XLFit software.

Another data set relates to SNI neuropathic pain. Briefly: Neuropathic pain mouse model induced by spared nerve injury (SNI). The format is in vivo, C57BL/6 mice. Particulars: SNI mice, 10 mg/kg intraperitoneal, 1 h and 4 h after administration (FIGS. 1 and 2). The procedure: (§1) In the Experimental example, compounds to be evaluated or compounds to be tested or test compounds used are the Compounds 1-46 prepared in the Examples according to the invention. In the Experimental example, all the agents for injection, including compounds to be evaluated or compounds to be tested or test compounds, and positive control drug, were dissolved in a mixed solvent of PEG400:Tween 80:normal saline (at a volume ratio of 5:5:90), at a concentration of 5 mg/mL.
Neuropathic pain mouse model induced by spared nerve injury (SNI) is a common animal model for studying neuropathic pain medically. The invention uses the model to evaluate the therapeutic effects of the compounds on neuropathic pain, wherein the model can represent peripheral neuropathic pain including, but not limited to post-herpetic neuralgia, pain caused by diabetic perineuropathy, neurothlipsis and exudation caused by tumor, lumbar surgery failure syndrome, neuropathic pain caused by lumbar disc protrusion, postpartum neuralgia, trigeminal neuralgia, chemotherapy-induced multiple neuropathic pain, post-radiotherapy plexopathy, and radicular neuralgia.
C57BL/6 mice (purchased from Shanghai SLAC Laboratory Animal Co., Ltd) were anesthetized by intraperitoneal injection with pentobarbital sodium (40 mg/kg), and skin from knee joint to gluteal region was subjected to skin preparation and disinfection. After the mice were fixed, the knee joint part was cut about 1 cm longitudinally with bistoury, and muscle tissues were separated by blunt dissection to expose sciatic nerve. The tibial and common peroneal nerve branches of sciatic nerve stem were cut off carefully, and the cut was then stitched up. The mice was placed in a clean observation cage. In the sham-operation group, only sciatic nerve was exposed without cutting the tibial and common peroneal nerve branches. From the day before the experiment to 24 h after the operation, the plantar edges of the mice were stimulated everyday by […] (Ugo Basile Company (Italy), Product ID: 37450), and data was collected automatically to obtain the threshold value of mice to mechanical stimulation. […] The positive control drug gabapentin was administered at a dose of 100 mg/kg. All the agents to be injected were dissolved in a mixed solvent of PEG400:Tween 80:normal saline (at a volume ratio of 5:5:90), at a concentration of 5 mg/mL. By comparing the threshold values (the acting force of when the mouse retracting the paw) at different administration time in different administration groups, the compound was evaluated for its analgesic effect on neuropathic pain.

Data set [5] has as its system headache caused by nitroglycerin. In words: Nitroglycerin-induced headache rat model. The format is in vivo, Wistar rats. Particulars: rats, 10 mg/kg i.p. 1 h before nitroglycerin (FIG. 5). The procedure: as §1
Nitroglycerin-induced headache rat model was a common model for studying inflammatory pain medically. The model was used in the invention to evaluate the therapeutic effects of the compounds on headache. The model can represent mixed pain including, but not only limited to: migraine, cluster headache, tension headache syndrome, prosopodynia, lumbodynia, shoulder pain, burning mouth syndrome, and complex regional pain syndrome.
Experimental Wistar rats with a body weight of about 250 g for each (purchased from Shanghai SLAC Laboratory Animal Co., Ltd) were in an experimental environment with free access to food and water for 1 week. The rats were fasted for 24 h before administration. The compound to be evaluated (10 mg/kg) was intraperitoneally injected to the rat at 1 h before the administration of nitroglycerin, wherein the positive control drug was indomethacin and the blank control was normal saline. Nitroglycerin (10 mg/kg, nitroglycerin dissolved in normal saline, at a concentration of 5%) was injected at epidermis of the rat neck, and the rats were then placed in the observation cage. A video camera was used to record the behavior of the rats in the following 60 min. Pain-related behavior was analyzed statistically based on the times that the rat scratched its head in said period.

For data set [6], the system named is inflammatory abdominal pain caused by acetic acid. Briefly: Abdominal inflammatory pain caused by acetic acid. The format is in vivo, Kunming mice. Conditions: mice, 10 mg/kg i.p. 1 h before acetic acid; indometacin 20 mg/kg (FIG. 4). The procedure: as §1
Typical model for studying inflammation-induced visceral pain medically was used to evaluate the therapeutic effects of compounds on inflammatory visceral pain. The model can represent general visceral pain including, but not only limited to appendicitis, gastritis, pancreatitis, prostatitis, myocarditis, interstitial cystitis, pain caused by hepatic, gall or kidney stone, irritable bowel syndrome, and chronic pelvic pain syndrome.
Experimental Kunming mice (purchased by Xiamen University Laboratory Animal Center from Shanghai SLAC Laboratory Animal Co., Ltd) were in an experimental environment with free access to food and water for 1 week. The mice were fasted for 24 h before administration. The compound to be evaluated (10 mg/kg) was administered to the mice by intraperitoneal injection at 1 h before administration of acetic acid, wherein the positive control drug indometacin was administered at a dose of 20 mg/kg, and the blank control was normal saline. Acetic acid (50 μL, acetic acid dissolved in normal saline, at a concentration of 5%) was administered to the mice by intraperitoneal injection, and the mice were then placed in the observation cage. A video camera was used to record the behavior of the mice in the following 20 min. Pain-related behavior was analyzed statistically based on torsion times of the mice in said period.

Where [7] appears, read: PBS pH 5.0, 37° C., read-out: Half-life pH 5.0.
Setting [8] is: PBS pH 7.4, 37° C., read-out: Half-life pH 7.4.

Chain of N-acylethanolamide hydrolyzing acid amidase (NAAA) (Q5KTC7 34-130 limits assumed): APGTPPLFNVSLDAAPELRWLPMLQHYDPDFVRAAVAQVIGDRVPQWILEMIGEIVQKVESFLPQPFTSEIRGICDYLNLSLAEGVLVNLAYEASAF
Chain of N-acylethanolamide hydrolyzing acid amidase (NAAA) (Q5KTC7 131-362 limits assumed): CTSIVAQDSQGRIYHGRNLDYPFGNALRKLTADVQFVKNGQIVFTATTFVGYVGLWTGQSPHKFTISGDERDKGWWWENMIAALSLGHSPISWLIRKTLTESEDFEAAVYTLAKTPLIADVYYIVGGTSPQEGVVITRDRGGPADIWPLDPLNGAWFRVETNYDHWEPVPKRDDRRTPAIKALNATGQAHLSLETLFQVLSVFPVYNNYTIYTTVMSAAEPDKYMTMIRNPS

Regarding `O=C(CCCCCc1ccc(O)cc1)N1CCOC1=O` [Compound 31, 4-Hydroxyphenylhexanoyl Oxazolidinone], the half-life (usually the time in which the quantity being followed falls by half) in data set [1] worked out at 1.23 h. The half-life at 1 μM in data set [2] (setting [7]) and in data set [2] (setting [8]) was > 24 h each time. The compound also showed a half-life at 2 μM in data set [3] of 2.2 h.
Take `CC(=O)C[C@@H]1COC(=O)N1C(=O)CCCCCc1cccc(C)c1` [Compound 11]: the half-life in data set [1] came to 3.07 h. The half-life at 1 μM in data set [2] (setting [7]) and in data set [2] (setting [8]) was > 24 h throughout. This compound yielded a half-life at 2 μM in data set [3] of 4.45 h.
With `O=C(CCCCCc1cccc(F)c1)N1CCOC1=O` [Compound 8, 3-Fluorophenylhexanoyl Oxazolidinone], the half-life in data set [1] turned out to be 1.55 h. Moreover, the half-life at 1 μM in data set [2] (setting [7]) and in data set [2] (setting [8]) was > 24 h each time. The half-life at 2 μM in data set [3] amounted to 2.75 h.
Take `Cc1ccc(CCCCCC(=O)N2CCOC2=O)cc1` [Compound 33, 4-Methylphenylhexanoyl Oxazolidinone]: the pIC50 (in general, the IC50 on a negative log10 scale, so that one unit is a factor of ten) in data set [4] is 6.36.
Still for that read-out and setting: the figure for `Cc1cccc(CCCCCC(=O)N2CCOC2=O)c1` [Compound 32, 3-Methylphenylhexanoyl Oxazolidinone] is 6.46.
In the case of `O=C(CCCCCC1CCCNC1)N1CCOC1=O` (centres unmarked) [Compound 34, Piperidin-3-yl-hexanoyl Oxazolidinone], on hERG potassium channel, the pIC50 was < 4.40.
`O=C1OCCN1C(=O)C1CCC(Cc2ccccc2)CC1` (centres unmarked) [Compound 24, 4-Benzylcyclohexanoyl Oxazolidinone]: the “effect of inhibiting central neuropathic pain” value in the data set on SNI neuropathic pain is recorded as “did not exhibit any effect of inhibiting central neuropathic pain”. Further, the “effect of inhibiting nitroglycerin-induced headache” value in data set [5] was “did not exhibit any effect of inhibiting headache in rats”. The “effect of inhibiting abdominal inflammatory pain” value in data set [6] was “did not exhibit any effect of inhibiting abdominal inflammatory pain”.
Consider `O=C1OCCN1C(=O)c1ccc(Oc2ccccc2)cc1` [Compound 41, 4-Phenoxybenzoyl Oxazolidinone], for which the pIC50 in data set [4] was 6.17. Moreover, the half-life in data set [1] was determined as 2.92 h. Besides, the half-life at 1 μM in data set [2] (setting [7]) and in data set [2] (setting [8]) was > 24 h throughout. For the same compound, the half-life at 2 μM in data set [3] was found to be 5.33 h.
For `N[C@H]1CC(=O)N(C(=O)CCCCCc2ccccc2)C1` [Compound 30], in the data set on SNI neuropathic pain, the “effect of inhibiting central neuropathic pain” value was “did not exhibit any effect of inhibiting central neuropathic pain”. Moreover, the “effect of inhibiting nitroglycerin-induced headache” value in data set [5] was “did not exhibit any effect of inhibiting headache in rats”. Further, the “effect of inhibiting abdominal inflammatory pain” value in data set [6] is listed as “did not exhibit any effect of inhibiting abdominal inflammatory pain”.

The values above are taken from US10174015B2, “Substituted heterocyclic derivative, preparation method and use thereof” (Xiamen University, priority 2014, dated 2019).
